Holding throughout (assay type): in vivo
Assay [1] deals with Male cockroaches (Blattela germanica). The assay is described as follows: Y-tube olfactometer bioassay, test compound in mineral oil on filter paper. The note with it: for Percent Response: 0.5% w/v solution in mineral oil, mean of 3 replicates, 65% or more = significantly attractive (*), 35% or less = significantly repellent (**). An excerpt:
The German cockroach (Blattela germanica) is one of the most difficult cockroach species to control in homes and was used to illustrate the invention. […] Since the cockroaches never contact the test sample, their response is strictly to the molecules in the air stream.
(§1) Olfactometer Bioassay: The Y-tube bioassay apparatus was similar to that described by Vander Meer et al. (J. Chem. Ecol., 14: 825-838 (1988)). Compressed air (breathing-air quality) was passed into the two choice arms at 0.2 l/min for a total flow of 0.4 l/min. Flow rates were adjusted and controlled by two flow meters (Omega Engineering, Inc.). All tubing carrying the air was either copper or Teflon. Prior to evaluating treatment samples, a positive standard was put through the bioassay procedure. […] Test samples (10.0 μl) and the solvent blank (mineral oil, 10.0 μl) were applied to filter paper strips (0.3×1.0 cm, Whatman No. 1) and then each was placed into one of the two choice arms. Male cockroaches (Blattela germanica) were prepared for their introduction into the olfactometer by placing them in a Teflon tube (3 cm×0.8 cm) that had one end blocked with a piece of copper mesh screen. The open end of tube was closed with a lightly attached piece of tape. The cockroaches were introduced individually by removing the tape and quickly inserting the Teflon tube into the entrance arm of the olfactometer. […] The initial choice of the cockroach was recorded. The cockroach was removed and the process was repeated 10 times with the same test and blank samples. The 10 choices usually required less than 5 minutes to complete. After each set of 10 cockroaches had made their choice, the olfactometer was rinsed with acetone, dried, and reassembled for the next test. Each sample was retested with the same cockroaches, but with the sample and control in reverse positions. The sum of the results from the two tests represented one replicate. This procedure minimized bias inherent in the apparatus. A null hypothesis of equal numbers of cockroaches in each arm was tested with chi-square analysis. […] Results in-between were neutral.
The diameter of the Y part of the olfactometer provided a close fit for the cockroach, thus keeping it in the center of the walkway.

Assay [2] has the same test system. The assay is described as follows: Y-tube olfactometer bioassay of controlled release pellets aged in a fume hood. Particulars: for Percent Response: mean of 3 replicates; for activity in the olfactometer (in words): charcoal as the absorbent, after one hour in the fume hood.
Description: as §1, with “procedure. The standard was initially an attractive food material (grape flavoring concentrate used at 0.33%) and later 0.5% (w/v) methyl tiglate, one of the compounds of the present invention, in white, light mineral oil (Aldrich Chemical Co.).” for “procedure.”
Controlled Release Formulations: Four esters found to be significant cockroach attractants were selected for evaluation in controlled release formulations-developed by BioGuard, Inc. Six controlled release formulations from BioGuard were evaluated in the olfactometer. The attractants were methyl tiglate, butyl hexanoate, propyl propanoate, and butyl heptanoate. The attractants were absorbed to either coconut shell charcoal pellets or potassium substituted crystalline zeolite pellets, and then coated with water soluble methylcellulose. The powdered methyl cellulose was dissolved in 80° C. water until saturation, cooled to approx 25° C., the pellets immersed into the solution for a 30 sec, and removed and rapidly air dried with 30° C. pre-dried air. The end products were pellets (charcoal=2 mm×4 mm dia.; molecular sieve=4 mm×1.5 mm dia.). […] A single pellet was used in place of the filter paper described above. The control side was left blank.

The test system of the next assay is cockroach. The assay is described as follows: Bioassays for cockroach attraction of attractants sorbed into thermoplastic polymers. The text has this:
To alleviate the reactivity with the carrier polymers, we attempted to load active compounds into a series of thermoplastic polymers including urethanes and synthetic rubbers, based on the behavior of the active compounds as plasticizers. […] Propyl propanoate, methyl hexanoate, and methyl tiglate were loaded into a series of thermoplastic granulated feed materials, including 4-(1,1,3,3-tetramethylbutyl) with ethylene-5-ethylidenebicyclo[2.2.1]hept-2-ene-propene thermoplastic synthetic rubber (Santopren™ 203-40). Santoprene™ is a thermoplastic elastomer (TPE that is a mixture of in-situ cross linking of EPDM rubber and polypropylene compounds). Because of the longer life of Santopren™ in both extreme hot and cold environments, it is often preferred over the use of rubber. Pellethane™ 2102-55D is a polyester polycaprolactone polyurethane. Methyl hexanoate and methyl tiglate were sorbed using heat and pressure (60° C., 40 psi, 30 min) into the Santoprene® and were effective in bioassays for cockroach attraction. […] Loading rates of active compounds into the Santoprene®, using slightly elevated temperature (60° C.) and 40 psi pressure, were 8-12% by wt for the two compounds.

The mark [3] stands for this setting: Charcoal absorbent, methylcellulose coated pellet, aged 1 hour in fume hood.
Where [4] appears, read: Molecular Sieve absorbent, methylcellulose coated pellet, aged 1 hour in fume hood.
[5] abbreviates: sorbed into Santoprene (60° C., 40 psi, 30 min).

Marks after values point to notes of the source that are not given here. Some results are limits rather than exact numbers.

As to `CCCOC(=O)CC` [Propyl Propanoate], the “Percent Response” value in assay [1] is on record as 70.0* %; in assay [2] (setting [3]) it was 65.0%; in assay [2] (setting [4]), 50.0%. Also, in assay [2], the “activity in the olfactometer (in words)” value was “significantly active”. The “effect in bioassays for cockroach attraction (in words)” value in the assay on cockroach (loaded into Dow Pellethane) and in the assay with cockroach (setting [5]) was “neither of these systems worked well” each time.

Take `C/C=C(\C)C(=O)OC` [methyl tiglate, methyl ester of tiglic acid (trans-2-methyl-2-butenoic acid (methyl tiglate))]: the “Percent Response” value was found to be 80.0% in assay [1]; 76.6% in assay [2] (setting [3]); 50.0% in assay [2] (setting [4]); 66.7% in assay [2] (charcoal controlled release formulation, aged 24 hours in fume hood); 61.6% in assay [2] (charcoal controlled release formulation, aged 48 hours in fume hood). Besides, the “percent of responding cockroaches attracted” value in assay [1] (three concentrations (0.25 to 0.75) in mineral oil, N=1, FIG. 8) is at least 65%. Further, the “activity in the olfactometer (in words)” value in assay [2] is “significantly active”. Also, the “effect in bioassays for cockroach attraction (in words)” value with cockroach (loaded into Dow Pellethane) is given as “worked less well”; with cockroach (setting [5]), “effective”.

The values are drawn from US8273340B2, “Methods and compositions for attracting or repelling cockroaches” (The United States of America, as represented by the …, priority 2008, dated 2012).
